Laboratory results as given in US6737383B1, “Herbicidal oxadiazolidines” (priority 1999, dated 2004).

Columns and labels:
morningglory = experiment: Test B pre/postemergence morningglory; assay type: in vivo, Ipomoea hederacea
How it was run: (§1)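 Response is a visual 0-to-10 score relative to untreated plants, where 0 means no effect and 10 means complete control, taken twelve to sixteen days after application. Treatments went onto soil at planting and onto foliage of 1- to 4-leaf plants, using a surfactant-containing non-phytotoxic solvent.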

blackgrass = experiment: Test B pre/postemergence blackgrass; assay type: in vivo, Alopecurus myosuroides
How it was run: as §1

wild oat = experiment: Test B pre/postemergence wild oat; assay type: in vivo, Avena fatua
How it was run: as §1

rape = experiment: Test B pre/postemergence rape; assay type: in vivo, Brassica napus
How it was run: as §1

bamyardgrass = experiment: Test B flood test barnyardgrass; assay type: in vivo, Echinochloa crus-galli
How it was run: (§2)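 Plants were grown to the 2-leaf stage before treatment with test chemical, then held in a greenhouse for twelve to sixteen days. Injury was visually rated against untreated controls on a 0–10 scale, where 0 is no effect and 10 is complete control.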

wheat = experiment: Test B pre/postemergence wheat; assay type: in vivo, Triticum aestivum
How it was run: as §1

soybean = experiment: Test B pre/postemergence soybean; assay type: in vivo, Glycine max
How it was run: as §1

cocklebur = experiment: Test B pre/postemergence cocklebur; assay type: in vivo, Xanthium strumarium
How it was run: as §1

surinam grass = experiment: Test B pre/postemergence surinam grass; assay type: in vivo, Brachiaria decumbens
How it was run: as §1

smallflower flatsedge = experiment: Test B flood test smallflower flatsedge; assay type: in vivo, Cyperus difformis
How it was run: as §2

giant foxtail = experiment: Test B pre/postemergence giant foxtail; assay type: in vivo, Setaria faberii
How it was run: as §1

corn = experiment: Test B pre/postemergence corn; assay type: in vivo, Zea mays
How it was run: as §1

crabgrass = experiment: Test B pre/postemergence crabgrass; assay type: in vivo, Digitaria sanguinalis
How it was run: as §1

bedstraw = experiment: Test B pre/postemergence bedstraw; assay type: in vivo, Galium aparine
How it was run: as §1

duck salad = experiment: Test B flood test duck salad; assay type: in vivo, Heteranthera limosa
How it was run: as §2

velvetleaf = experiment: Test B pre/postemergence velvetleaf; assay type: in vivo, Abutilon theophrasti
How it was run: as §1

[1] = Postemergence, Rate 62 g/ha, scale 0 to 10, 0 is no effect, 10 is complete control
[2] = Postemergence, Rate 250 g/ha, scale 0 to 10, 0 no effect, 10 complete control
[3] = Preemergence, Rate 62 g/ha, scale 0 to 10, 0 is no effect, 10 is complete control
[4] = Preemergence, Rate 125 g/ha, scale 0 to 10 (0 no effect, 10 complete control)
[5] = Preemergence, Rate 250 g/ha, scale of 0 to 10 where 0 is no effect and 10 is complete control
[6] = Preemergence, Rate 500 g/ha, scale 0 (no effect) to 10 (complete control)
[7] = Rate 125 g/ha, Postemergence, scale 0 to 10, 0 no effect, 10 complete control
[8] = Rate 500 g/ha, Postemergence, 0 to 10 scale (0 no effect, 10 complete control)
[9] = Rate 125 g/ha, Postemergence section (flood test species), scale 0 to 10, 0 no effect, 10 complete control
[10] = Rate 500 g/ha, Postemergence section of Table B, 0 to 10 scale (0 no effect, 10 complete control)
[11] = flood test, listed under Postemergence, Rate 250 g/ha, scale 0 to 10, 0 no effect, 10 complete control

## CCc1ccccc1-n1c(=O)on(C(=O)N(c2ccc(F)cc2)C(C)C)c1=O [Compound 34]
morningglory; [1]
  Morningglory plant response rating: 1
morningglory; [2]
  Morningglory plant response rating: 5
morningglory; [3]
  Plant response rating, Morningglory: 0
morningglory; [4]
  Plant response rating, Morningglory: 0
morningglory; [5]
  Plant response rating, Morningglory: 0
morningglory; [6]
  Morningglory plant response rating: 0
morningglory; [7]
  Morningglory plant response rating: 2
morningglory; [8]
  Morningglory plant response rating: 8
blackgrass; [1]
  Blackgrass plant response rating: 0
blackgrass; [2]
  Blackgrass plant response rating: 6
blackgrass; [3]
  Plant response rating, Blackgrass: 3
blackgrass; [4]
  Plant response rating, Blackgrass: 5
blackgrass; [5]
  Plant response rating, Blackgrass: 6
blackgrass; [6]
  Blackgrass plant response rating: 6
blackgrass; [7]
  Blackgrass plant response rating: 2
blackgrass; [8]
  Blackgrass plant response rating: 9
Wild oat; [1]
  Wild oats plant response rating: 0
Wild oat; [2]
  Wild oats plant response rating: 0
Wild oat; [4]
  Plant response rating, Wild oats: 0
Wild oat; [5]
  Plant response rating, Wild oats: 2
Wild oat; [6]
  Wild oats plant response rating: 7
Wild oat; [7]
  Wild oats plant response rating: 0
rape; [1]
  Rape plant response rating: 0
rape; [2]
  Rape plant response rating: 0
rape; [3]
  Plant response rating, Rape: 0
rape; [4]
  Plant response rating, Rape: 0
rape; [5]
  Plant response rating, Rape: 0
rape; [6]
  Rape plant response rating: 3
rape; [7]
  Rape plant response rating: 0
rape; [8]
  Rape plant response rating: 0
bamyardgrass; [1]
  Barnyardgrass plant response rating: 0
bamyardgrass; [9]
  Barnyardgrass plant response rating: 0
bamyardgrass; [10]
  Barnyardgrass plant response rating: 0
bamyardgrass; [11]
  Barnyardgrass plant response rating: 0
wheat; [1]
  Wheat plant response rating: 0
wheat; [2]
  Wheat plant response rating: 0
wheat; [3]
  Plant response rating, Wheat: 0
wheat; [4]
  Plant response rating, Wheat: 0
wheat; [5]
  Plant response rating, Wheat: 0
wheat; [6]
  Wheat plant response rating: 2
wheat; [7]
  Wheat plant response rating: 0
soybean; [1]
  Soybean plant response rating: 0
soybean; [2]
  Soybean plant response rating: 0
soybean; [3]
  Plant response rating, Soybean: 0
soybean; [4]
  Plant response rating, Soybean: 0
soybean; [5]
  Plant response rating, Soybean: 0
soybean; [6]
  Soybean plant response rating: 0
soybean; [7]
  Soybean plant response rating: 0
cocklebur; [1]
  Cocklebur plant response rating: 0
cocklebur; [2]
  Cocklebur plant response rating: 0
cocklebur; [3]
  Plant response rating, Cocklebur: 0
cocklebur; [4]
  Plant response rating, Cocklebur: 0
cocklebur; [5]
  Plant response rating, Cocklebur: 0
cocklebur; [6]
  Cocklebur plant response rating: 0
cocklebur; [7]
  Cocklebur plant response rating: 0
cocklebur; [8]
  Cocklebur plant response rating: 4
Surinam grass; [1]
  B. signalgrass plant response rating: 0
Surinam grass; [2]
  B. signalgrass plant response rating: 0
Surinam grass; [3]
  Plant response rating, B. signalgrass: 0
Surinam grass; [4]
  Plant response rating, B. signalgrass: 1
Surinam grass; [5]
  Plant response rating, B. signalgrass: 2
Surinam grass; [6]
  B. signalgrass plant response rating: 3
Surinam grass; [7]
  B. signalgrass plant response rating: 0
Surinam grass; [8]
  B. signalgrass plant response rating: 0
Smallflower flatsedge; [1]
  S. Flatsedge plant response rating: 0
Smallflower flatsedge; [9]
  S. Flatsedge plant response rating: 0
Smallflower flatsedge; [11]
  S. Flatsedge plant response rating: 0
Giant foxtail; [1]
  Giant foxtail plant response rating: 0
Giant foxtail; [2]
  Giant foxtail plant response rating: 2
Giant foxtail; [3]
  Plant response rating, Giant foxtail: 2
Giant foxtail; [4]
  Plant response rating, Giant foxtail: 6
Giant foxtail; [5]
  Plant response rating, Giant foxtail: 10
Giant foxtail; [6]
  Giant foxtail plant response rating: 10
Giant foxtail; [7]
  Giant foxtail plant response rating: 0
Giant foxtail; [8]
  Giant foxtail plant response rating: 8
corn; [1]
  Corn plant response rating: 0
corn; [2]
  Corn plant response rating: 0
corn; [3]
  Plant response rating, Corn: 0
corn; [4]
  Plant response rating, Corn: 0
corn; [5]
  Plant response rating, Corn: 0
corn; [6]
  Corn plant response rating: 0
corn; [7]
  Corn plant response rating: 0
corn; [8]
  Corn plant response rating: 0
crabgrass; [1]
  Crabgrass plant response rating: 0
crabgrass; [2]
  Crabgrass plant response rating: 3
crabgrass; [3]
  Plant response rating, Crabgrass: 7
crabgrass; [4]
  Plant response rating, Crabgrass: 7
crabgrass; [5]
  Plant response rating, Crabgrass: 10
crabgrass; [6]
  Crabgrass plant response rating: 10
crabgrass; [7]
  Crabgrass plant response rating: 0
crabgrass; [8]
  Crabgrass plant response rating: 9
bedstraw; [1]
  Bedstraw plant response rating: 4
bedstraw; [2]
  Bedstraw plant response rating: 6
bedstraw; [3]
  Plant response rating, Bedstraw: 0
bedstraw; [4]
  Plant response rating, Bedstraw: 0
bedstraw; [5]
  Plant response rating, Bedstraw: 0
bedstraw; [6]
  Bedstraw plant response rating: 0
bedstraw; [7]
  Bedstraw plant response rating: 4
bedstraw; [8]
  Bedstraw plant response rating: 7
Duck salad; [1]
  Ducksalad plant response rating: 0
Duck salad; [9]
  Ducksalad plant response rating: 0
Duck salad; [10]
  Ducksalad plant response rating: 0
Duck salad; [11]
  Ducksalad plant response rating: 0
velvetleaf; [1]
  Velvetleaf plant response rating: 0
velvetleaf; [2]
  Velvetleaf plant response rating: 2
velvetleaf; [3]
  Plant response rating, Velvetleaf: 0
velvetleaf; [4]
  Plant response rating, Velvetleaf: 0
velvetleaf; [5]
  Plant response rating, Velvetleaf: 0
velvetleaf; [6]
  Velvetleaf plant response rating: 2
velvetleaf; [7]
  Velvetleaf plant response rating: 0
